We go through 19 compounds from patent publication US8303907B2, “Biosensors, and method and kits for using same” (priority 2002, dated 2012).

In brackets after ≈: the same amount, converted by molar mass. Where two headings read alike, the source gives them in different places.

Experiment [1] deals with stabilised thylakoid membranes. Put plainly: Inhibition of photosynthetic efficiency of stabilised thylakoid membranes measured by fluorescence (F2-F1)/F2. The experiment is classed as biochemical, spinach. The text has this:
In a specific embodiment, a fluorometer continuously illuminates weakly the photosynthetic biological material with a light emitting diode (LED) emitting light at a wavelength of 475 or at 660 nm. Better results were obtained with the 475 nm wavelength. In order to obtain a higher sensitivity for measuring the photosynthetic response to toxic molecules, the intensity of the low excitation light was adjusted so as to obtain a F1 fluorescence level slightly higher than F0.
Fluorescence measured 2 sec after turning on one LED is F1. Three additional LEDs are then turned on so as to induce actinic illumination F2. Dispersion of LEDs is illustrated in FIG. 1. Light beams are oriented so as to form together a point of convergence precisely at the level where the photodiode is read. After a specific time, selected according to the nature of the thylakoid membranes used (eg. source of thylakoids, etc.) (Table 1), of the background noise and of the level of sensitivity sought, the F2 fluorescence is measured. To determine F1 and F2, the fluorometer measures wavelengths higher than 650 nm when the illumination is at 475 nm, and higher than 700 nm when illumination is at 660 nm.
The photosynthetic efficiency is determined with the following formula (F2−F1)/F2. Preferably, the photosynthetic efficiency of the stabilised thylakoids is 0.8±0.1. Any molecule affecting the photosystems modifies either F1 or F2 which modification necessarily disrupts (increases or decreases) the photosynthetic efficiency. The inhibition curve of a particular molecule is determined by calculating the activity of the photosystems in the absence of the molecule and in the presence of the molecule and comparing both efficiency as follows as described in Conrad 1993:
Without inhibitor (wi): efficiency(wi)=(F2(wi)−F1(wi))/F2(wi) With inhibitor: Relative photosynthetic efficiency(sample)=(F2(sample)−F1(sample))/F2(wi) Percentage efficiency: efficiency (%)=(efficiency(sample)×100)/efficiency(wi) Percentage inhibition: Inhibition (%)=100−efficiency (%)
The individual test tubes (100 μL lyophilised thylakoid membranes) were resuspended in 2 mL of water or tested samples. The concentrated batch of test tubes was resuspended in water, in Buffer 1 (HEPES-NaOH 50 mM pH 7.5 buffer containing sucrose 330 mM, MgCl2 20 mM, NH4Cl 10 mM, PEG 4000 4% (p/v)); or in Buffer 2 (phosphate buffer 0.1 M pH 6.5 containing sucrose 330 mM, NH4Cl 10 mM, MgCl2 20 mM, EDTA 10 mM, PEG 4000 4% (p/v)). A combination of buffered solutions 1 and 2 may also be used. […] These different buffers rs produce different results in the detection sensitivity (see Table 3 above). The final volume obtained depends on the quantity of lyophilised membranes used (2.5 mL for 25 tests, 5 mL for 50 tests).
Before use, the tubes containing stabilised thylakoid membranes were retrieved from storage. If they were stored in the freezer or the refrigerator, they were tempered 30 minutes at room temperature and in the dark. Two milliliters of fluid samples and the required volume of MgCl2 mother solution to get 0-10 mM MgCl2 (depending on tested samples) were added to 100 μL of the thylakoids membranes formulation at a concentration of 5 μg/mL. The tubes are then shook by inversion for 2 min. […]

Experiment [2] has as its system Chemically immobilised thylakoids. Conditions: chemically immobilised thylakoids (electrochemistry), Laberge (1999); cited from earlier work.
Experiment [3] deals with Physically immobilised thylakoids. The settings on record: physically immobilised thylakoids (electrochemistry), Laberge (2000); cited from earlier work.
The target of experiment [4] is T1, PSII (Thermosynechococcus vestitus, UniProt P0A444). Conditions: PSII Clark electrode (amperometry), Koblizek (2002), cited from earlier work.
Experiment [5] has as its system algaes native. The settings on record: algaes native (fluorescence), Jay (1997); cited from earlier work.
Experiment [6] relates to algaes native. Conditions: algaes native (fluorescence), Conrad (1993); cited from earlier work.
For experiment [7], the target named is T1, PSII. The settings on record: cited from earlier work.
[8] abbreviates: Buffer 1 + 5 mM MgCl2 (in cuvette).
Where [9] appears, read: membranes resuspended in Buffer 1.
The mark [10] stands for this setting: membranes resuspended in Buffer 2.
Where [11] appears, read: stabilised thylakoid membranes of the present invention (fluorescence).

In the case of `N#Cc1cc(Br)c(O)c(Br)c1` [Bromoxynil], the results for the IC50 in experiment [1] (setting [8]), in experiment [1] (setting [9]) and in experiment [1] (setting [10]) were over 0.1 µg/mL, 0.443 µg/mL and 0.414 µg/mL, respectively. Also, the Threshold in experiment [1] (setting [8]) is reported as over 0.1 mg/L; in experiment [1] (setting [9]) it was 0.013 mg/L; in experiment [1] (setting [10]), 0.06 mg/L.
In the case of `CCCCCCCCCCCCCCCCCC(=O)O` [Stearic acid], in experiment [1], the “Effect (inhibition or stimulation) on thylakoid membranes” value (“Effect (inhibition or stimulation)” below) is “Stimulation”.
Regarding `[Ni+2]` [Ni], the IC50 in experiment [1] (incubation time 15 min), in experiment [1] (incubation time 30 min) and in experiment [1] (incubation time 60 min) was over 100 µg/mL in each case. Also, the Threshold limit value is 35 mg/L in experiment [1] (incubation time 15 min), 7.1 mg/L in experiment [1] (incubation time 30 min) and 7.1 mg/L in experiment [1] (incubation time 60 min).
Ammoniacal nitrogen: the “Effect (inhibition or stimulation)” value in experiment [1] was “Stimulation”.
`CN(C)C(=O)Nc1ccc(Cl)c(Cl)c1` [Diuron]: the IC50 was 0.011 µg/mL in experiment [1] (setting [8]); 0.022 µg/mL in experiment [1] (setting [9]); 0.02 µg/mL in experiment [1] (setting [10]); 71 µg/mL in experiment [1] (setting [11]); 120 µg/mL (≈ 515 µM) in experiment [2]; 130 µg/mL (≈ 558 µM) in experiment [3]. The IC50 was 81.5 µM in experiment [4] (read-out: IC50 (converted)), 12 µg/mL (≈ 51.5 µM) in experiment [5], 959 µg/mL (≈ 4110 µM) in experiment [6] and 686 µM in experiment [7]. Further, the Threshold in experiment [1] (setting [8]) is recorded as 0.002 mg/L; in experiment [1] (setting [9]) it was 0.0006 mg/L; in experiment [1] (setting [10]) it was under 0.001 mg/L; in experiment [1] (setting [11]), 0.002 mg/L; in experiment [2] it was 0.01 mg/L; in experiment [4], 0.0001 mg/L. Also, the Threshold in experiment [5] is 0.002 mg/L.
As for `CCCCCCCC/C=C\CCCCCCCC(=O)O` [Oleic acid], the “Effect (inhibition or stimulation)” value in experiment [1] is recorded as “Inhibition”.
Consider `O=C([O-])[O-].[Ca+2]` [CaCO3], for which the “Effect (inhibition or stimulation)” value in experiment [1] is recorded as “Stimulation”.
On the same count and under the same terms, under Phosphates stands “Stimulation”.
Turning to `[Hg+2]` [Hg], the figures for the IC50 in experiment [1] (incubation time 15 min), in experiment [1] (incubation time 30 min) and in experiment [1] (incubation time 60 min) were 2.5 µg/mL, 2.0 µg/mL and 2.0 µg/mL, respectively. The Threshold limit value in experiment [1] (incubation time 15 min) was found to be 0.7 mg/L; in experiment [1] (incubation time 30 min), 0.35 mg/L; in experiment [1] (incubation time 60 min) it was 0.35 mg/L.
`CCNc1nc(N)nc(Cl)n1` [Deisopropyl atrazine]: the results for the IC50 in experiment [1] (setting [8]), in experiment [1] (setting [9]) and in experiment [1] (setting [10]) were over 0.1 µg/mL, over 1 µg/mL and over 4 µg/mL, respectively. Further, the Threshold is over 0.1 mg/L in experiment [1] (setting [8]), 0.2 mg/L in experiment [1] (setting [9]) and 1.26 mg/L in experiment [1] (setting [10]).
Take `CCNc1nc(Cl)nc(NCC)n1` [Simazine]: in experiment [1] (setting [8]), the IC50 amounted to 0.942 µg/mL and the Threshold is on record as 0.06 mg/L. In experiment [1] (setting [9]), the IC50 was 0.028 µg/mL and the Threshold came out at 0.002 mg/L.
Regarding Nitrates, the “Effect (inhibition or stimulation)” value in experiment [1] is given as “Weak inhibition”.
With `CC(C)N1C(=O)c2ccccc2NS1(=O)=O` [Bentazon], the IC50 in experiment [1] (setting [8]), in experiment [1] (setting [9]) and in experiment [1] (setting [10]) was over 4 µg/mL throughout. Moreover, the Threshold is recorded as over 4 mg/L in experiment [1] (setting [8]), 2 mg/L in experiment [1] (setting [9]) and 1.22 mg/L in experiment [1] (setting [10]).
`OO` [H2O2]: the “Effect (inhibition or stimulation)” value in experiment [1] is “Inhibition”.
`CC(C)Nc1nc(N)nc(Cl)n1` [Desethyl atrazine]: the IC50 in experiment [1] (setting [8]) amounted to 1.1 µg/mL; in experiment [1] (setting [9]) it was 1.08 µg/mL; in experiment [1] (setting [10]), 2.31 µg/mL. The Threshold in experiment [1] (setting [8]) turned out to be 0.2 mg/L; in experiment [1] (setting [9]), 0.013 mg/L; in experiment [1] (setting [10]) it was 0.2 mg/L.
On to `[Cl-].[Na+]` [NaCl], for which, in experiment [1], the “Effect (inhibition or stimulation)” value was “Stimulation”.
For `[Zn+2]` [Zn], the results for the IC50 in experiment [1] (incubation time 15 min), in experiment [1] (incubation time 30 min) and in experiment [1] (incubation time 60 min) were over 100 µg/mL, 70 µg/mL and 34 µg/mL, respectively. The figures for the Threshold limit value in experiment [1] (incubation time 15 min), in experiment [1] (incubation time 30 min) and in experiment [1] (incubation time 60 min) were 16 mg/L, 16 mg/L and 7.1 mg/L, respectively.
As for `CCNc1nc(Cl)nc(NC(C)(C)C#N)n1` [Cyanazine], the IC50 in experiment [1] (setting [8]) was 0.028 µg/mL; in experiment [1] (setting [9]), 0.009 µg/mL; in experiment [1] (setting [10]) it was 0.135 µg/mL; in experiment [1] (setting [11]) it was 40 µg/mL; in experiment [2], 79 µg/mL (≈ 328 µM); in experiment [3], 310 µg/mL (≈ 1290 µM). Besides, the Threshold in experiment [1] (setting [8]) stood at 0.0006 mg/L; in experiment [1] (setting [9]) it was 0.002 mg/L; in experiment [1] (setting [10]) it was 0.013 mg/L.
Consider `CCC(=O)Nc1ccc(Cl)c(Cl)c1` [Propanil], for which the IC50 in experiment [1] (setting [8]) worked out at 0.068 µg/mL; in experiment [1] (setting [9]), 0.179 µg/mL; in experiment [1] (setting [10]), 0.221 µg/mL. The results for the Threshold in experiment [1] (setting [8]), in experiment [1] (setting [9]) and in experiment [1] (setting [10]) were 0.0006 mg/L, 0.002 mg/L and 0.013 mg/L, respectively.

A word on the IC50: it is the concentration that inhibits the measured activity by half.
